Reference: patent US20260007629A1, “DIETARY BUTYRATE AND ITS USES” (SOCIETE DES PRODUITS NESTLE S.A., priority 2019, published 2026)

Tests used:
[1] = biological target: T1, porcine pancreatic lipase (PPL) (Sus scrofa, UniProt P00591); settings: pig, 3 h, pH 11.5
T1 sequence (P00591 1-450): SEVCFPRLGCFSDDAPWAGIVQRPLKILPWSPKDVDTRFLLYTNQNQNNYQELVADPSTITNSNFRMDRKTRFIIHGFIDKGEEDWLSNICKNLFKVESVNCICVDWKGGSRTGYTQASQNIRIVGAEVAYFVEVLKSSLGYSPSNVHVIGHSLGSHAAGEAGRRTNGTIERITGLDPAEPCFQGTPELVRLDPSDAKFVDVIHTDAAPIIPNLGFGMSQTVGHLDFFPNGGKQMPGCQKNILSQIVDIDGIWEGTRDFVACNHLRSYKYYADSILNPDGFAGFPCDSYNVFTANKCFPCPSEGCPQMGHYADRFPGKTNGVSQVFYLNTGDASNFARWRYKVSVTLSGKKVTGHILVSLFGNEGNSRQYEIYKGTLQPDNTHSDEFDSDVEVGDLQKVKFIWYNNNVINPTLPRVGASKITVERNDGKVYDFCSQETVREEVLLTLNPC
T1 sequence (P02703 23-112 partner): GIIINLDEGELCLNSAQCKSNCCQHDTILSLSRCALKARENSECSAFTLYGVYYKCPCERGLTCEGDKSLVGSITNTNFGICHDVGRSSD
Excerpt: Because many fatty acids are only partially ionised at pH 6.8, direct titration gives only partial picture of the extent of lipid digestion, instead back titration to pH 11.5 or GC-FAME analysis is required to estimate the full extent of digestion.

[2] = biological target: T1, porcine pancreatic lipase (PPL); test: In vitro digestion, simulated intestinal fluid (SIF) model, pH-stat; type: in vitro ADME; parameters: by porcine pancreatic lipase (from pancreatin); purchased SIGMA-ALDRICH P7585; host or cells: porcine pancreas extract (pancreatin); settings: SIF alone; emulsion with 200 mg fat, pH 6.8, 37° C.
Experimental: (§1) 10 wt % oil in water emulsions stabilised by 0.3 wt % polyoxyethylene sorbitan mono-oleate (Tween® 80) were prepared by mixing the Tween 80 into the oil phase at 40° C., then mixing with the water phase using a magnetic stirrer.
(§2) The lipid emulsion (2 mL) containing 200 mg of fat was subjected to gastrointestinal in vitro lipolysis. […] For gastric digestion, the sample was incubated for 90 minutes with 8.5 mL of simulated gastric fluid (SGF), which consisted of 150 mM NaCl, 450 U/mL pepsin, 18 U/mL rabbit gastric lipase at 37° C. and a pH of 5.5.
The intestinal digestion step was performed in the pH stat where the pH was kept constant at 6.8 by addition of NaOH (0.05 M). […] The intestinal digestion step starts when the temperature reaches 37±0.5° C. […] During the intestinal phase of digestion, the kinetics of digestion were followed using a pH-stat (TIM856, RADIOMETER®) technique and expressed as titratable acid (rather than fatty acid) that was calculated by the equation: […]
(§3) Since the digestion of dietary lipids involves lipases of both gastric and intestinal origin, lipid digestibility was assessed using two digestion models i) simulated intestinal fluid (SIF) with porcine pancreatic lipase (PPL) and ii) sequential digestion in simulated gastric fluid (SGF) with rabbit gastric lipase (RGL) followed by simulated intestinal fluid (SIF) with porcine pancreatic lipase (PPL).

[3] = test system: rabbit gastric lipase (RGL) followed by porcine pancreatic lipase (PPL); test: In vitro sequential digestion, SGF followed by SIF, pH-stat; type: in vitro ADME
Experimental: as §1, §2
The intestinal digestion step was performed in the pH stat where the pH was kept constant at 6.8 by addition of NaOH (0.05 M). […] The intestinal digestion step starts when the temperature reaches 37±0.5° C. The pH was adjusted to pH 6.8 and after incubation of two minutes at this pH and temperature, a pancreatin solution (5 mM tris, 150 mM NaCl at pH 6.8) was added. The final composition of the intestinal fluid was 10 mM CaCl2, 2 mM mixed bile salts, 0.75 mM phospholipid, 150 mM NaCl and 4 mM tris (hydroxymethyl) aminomethane buffer. The intestinal digestion step was carried out for 3 hours in a titration manager from RADIOMETER®. During the intestinal phase of digestion, the kinetics of digestion were followed using a pH-stat (TIM856, RADIOMETER®) technique and expressed as titratable acid (rather than fatty acid) that was calculated by the equation:
TA: Total titratable acid released, mmol; VNaOH: volume of NaOH used to titrate the released acid in 3 h, mL.
as §3

SMILES: CCCC(=O)OCC(COC(=O)CCC)OC(=O)CCC [tributyrin]
- extent of digestion [1]: 101.5±0.9%
- initial (maximal) rate of lipolysis [2]: 223 ± 59 µmol/min
- initial lipolysis rate in SIF compartment ([3]; SGF-SIF digestion (90 min SGF pre-exposure, pH 5.5)): 44.1 ± 8.8 µmol/min
- hydrolysis in the stomach / extent of gastric lipolysis ([3]; in words, gastric compartment of the model): extensive hydrolysis in the stomach
- lipolysis by gastric lipase ([3]; indicated by decreased total fatty acid release in SIF after RGL pre-exposure): ~60%
